Data as given in patent US20250002492A1, “COMPOSITIONS OF FOLATE ABSORPTION INHIBITORS AND METHODS THEREOF” (THE TEXAS A&M UNIVERSITY SYSTEM, priority 2023, published 2025).

System: C. elegans strain N2
Test: Lifespan assay in worms
Assay type: in vivo
Source text: The ability of pharmacological or other interventions to extend the lifespan of different organisms is often conserved. For the instant example, the disclosed compounds can be tested for their ability to extend the lifespan of the worm model system Caenorhabditis elegans (N2 strain) [see, e.g., PMID: 19488025]. The organisms can be first exposed to the compounds as adults, 2-3 days after the egg stage until their death, on solid media containing the compounds at the desired concentration. The temperature can be kept constant at 20° C. throughout the assays. The bacteria used as food for the worms (Escherichia coli strain OP-50) can be dead (e.g., killed by lethal doses of ultraviolet radiation) to ensure that any effects on lifespan are not indirect, mediated through bacterial metabolism.
The assays were performed at 20° C. using C. elegans strain N2 and a bacterial strain (OP50) commonly used as food for the worms. Briefly, the assays were performed on solid agar nematode growth media (NGM) plates prepared fresh before each experiment. The bacterial lawn was exposed twice to a UV dose of 120 mJ/cm^2 using a UVC-515 Ultraviolet Multilinker (Ultra-Lum, Inc.). Streaking these UV-exposed bacteria to fresh LB agar plates (1% w/v tryptone, 0.5% w/v yeast extract, 1% w/v sodium chloride) produced no visible colonies. Methotrexate, or the ATIC inhibitor, was first dissolved in DMSO and then added to the media used to prepare the plates after autoclaving (the media were kept in a 50° C. water bath until the plates were poured). Mock-treated control plates contained only DMSO. At the start of each experiment, a sufficient number of eggs were collected from plates without any drugs and then placed on plates containing the indicated doses of each compound tested. After hatching and progression to the adult stage, animals were transferred to new plates (marked as the start of the lifespan assay) containing the drug tested and fluorodeoxyuridine (FUDR; dissolved in water), added at 50 μM to block hatching of new animals. The plates were scored at least every other day until all the worms died. If an animal responded to gentle touch, it was scored as alive, otherwise a death was recorded, and the animal was removed from the plate. Worms were transferred to fresh plates as needed (e.g., if there was evidence of microbial contamination, dryness/cracks on the agar surface, consumption of the bacterial lawn, or hatching of new animals that escaped the FUDR block). The reported lifespans were compiled from several independent experiments done over several months (9-10 months for the methotrexate experiments and 4-5 months for the ATIC inhibitor), each scored by multiple individuals (4-5 persons per experiment). No experiments were excluded from the analysis.

## CC(=O)N1CCC(C(=O)N2CCN3C(=O)c4cc(-c5ccccc5)ccc4NC(=O)C3C2)CC1 (stereo not drawn) [MPOL_B_1, 2-(1-acetylpiperidine-4-carbonyl)-8-phenyl-1,3,4,12a-tetrahydrobenzo[e]pyrazino[1,2-a][1,4]diazepine-6,12(2H,11H)-dione]
Same worm assay
  lifespan effect relative to the effect of methotrexate: 2-3 times
worms, 50 and 100 μM
  extension of maximal lifespan: ~30%
  extension of mean lifespan: ~30%
